Experimental data published in ChEMBL document CHEMBL2440076, “New triarylpyrazoles as broad-spectrum anticancer agents: design, synthesis, and biological evaluation” (Eur J Med Chem, 2013).

Columns and labels:
Type in all cases: functional
[1] = test system: Malme-3M; assay: Growth inhibition of human MALME-3M cells assessed as cell growth at 5X10'-8 M after 48 hrs by sulforhodamine B assay; conditions: read-out: Activity
[2] = test system: IGROV-1; assay: Growth inhibition of human IGROV1 cells assessed as cell growth at 5X10'-8 M after 48 hrs by sulforhodamine B assay; conditions: IGROV-1, 48 h, read-out: Activity
[3] = test system: SW-620; assay: Growth inhibition of human SW620 cells assessed as cell growth at 5X10'-5 M after 48 hrs by sulforhodamine B assay; conditions: SW-620, 48 h, read-out: Activity
[4] = test system: MDA-MB-468; assay: Growth inhibition of human MDA-MB-468 cells assessed as cell growth at 5X10'-6 M after 48 hrs by sulforhodamine B assay; conditions: MDA-MB-468, 48 h, read-out: Activity
[5] = test system: NCI-H226; assay: Growth inhibition of human NCI-H226 cells assessed as cell growth at 5X10'-7 M after 48 hrs by sulforhodamine B assay; conditions: NCI-H226, 48 h, read-out: Activity
[6] = test system: SN12C; assay: Growth inhibition of human SN12C cells assessed as cell growth at 5X10'-5 M after 48 hrs by sulforhodamine B assay; conditions: read-out: Activity
[7] = test system: A549; assay: Growth inhibition of human A549/ATCC cells assessed as cell growth at 5X10'-7 M after 48 hrs by sulforhodamine B assay; conditions: A549, 48 h, read-out: Activity
[8] = test system: NCI-H23; assay: Growth inhibition of human NCI-H23 cells assessed as cell growth at 5X10'-5 M after 48 hrs by sulforhodamine B assay; conditions: NCI-H23, 48 h, read-out: Activity
[9] = test system: COLO 205; assay: Growth inhibition of human COLO205 cells assessed as cell growth at 5X10'-6 M after 48 hrs by sulforhodamine B assay; conditions: COLO 205, 48 h, read-out: Activity
[10] = test system: MDA-MB-435; assay: Growth inhibition of human MDA-MB-435 cells assessed as cell growth at 5X10'-6 M after 48 hrs by sulforhodamine B assay; conditions: MDA-MB-435, 48 h, read-out: Activity
[11] = test system: KM12; assay: Growth inhibition of human KM12 cells assessed as cell growth at 5X10'-5 M after 48 hrs by sulforhodamine B assay; conditions: KM12, 48 h, read-out: Activity
[12] = test system: HCT-15; assay: Growth inhibition of human HCT15 cells assessed as cell growth at 5X10'-5 M after 48 hrs by sulforhodamine B assay; conditions: HCT-15, 48 h, read-out: Activity
[13] = test system: SK-MEL-2; assay: Growth inhibition of human SK-MEL-2 cells assessed as cell growth at 5X10'-6 M after 48 hrs by sulforhodamine B assay; conditions: SK-MEL-2, 48 h, read-out: Activity
[14] = test system: HL-60(TB); assay: Growth inhibition of human HL-60(TB) cells assessed as cell growth at 5X10'-6 M after 48 hrs by sulforhodamine B assay; conditions: HL-60, 48 h, read-out: Activity
[15] = test system: OVCAR-5; assay: Growth inhibition of human OVCAR5 cells assessed as cell growth at 5X10'-7 M after 48 hrs by sulforhodamine B assay; conditions: OVCAR-5, 48 h, read-out: Activity
[16] = test system: OVCAR-3; assay: Growth inhibition of human OVCAR3 cells assessed as cell growth at 5X10'-6 M after 48 hrs by sulforhodamine B assay; conditions: OVCAR-3, 48 h, read-out: Activity
[17] = test system: NCI-H522; assay: Growth inhibition of human NCI-H522 cells assessed as cell growth at 5X10'-7 M after 48 hrs by sulforhodamine B assay; conditions: NCI-H522, 48 h, read-out: Activity
[18] = test system: TK-10; assay: Growth inhibition of human TK10 cells assessed as cell growth at 5X10'-6 M after 48 hrs by sulforhodamine B assay; conditions: TK-10, 48 h, read-out: Activity
[19] = test system: MOLT-4; assay: Growth inhibition of human MOLT4 cells assessed as cell growth at 5X10'-6 M after 48 hrs by sulforhodamine B assay; conditions: MOLT-4, 48 h, read-out: Activity
[20] = test system: M14; assay: Growth inhibition of human M14 cells assessed as cell growth at 5X10'-7 M after 48 hrs by sulforhodamine B assay; conditions: M14, 48 h, read-out: Activity
[21] = test system: OVCAR-4; assay: Growth inhibition of human OVCAR4 cells assessed as cell growth at 5X10'-8 M after 48 hrs by sulforhodamine B assay; conditions: OVCAR-4, 48 h, read-out: Activity
[22] = test system: RPMI-8226; assay: Growth inhibition of human RPMI8226 cells assessed as cell growth at 5X10'-7 M after 48 hrs by sulforhodamine B assay; conditions: RPMI-8226, 48 h, read-out: Activity
[23] = test system: U-251; assay: Growth inhibition of human U251 cells assessed as cell growth at 5X10'-8 M after 48 hrs by sulforhodamine B assay; conditions: U-251, 48 h, read-out: Activity
[24] = test system: ACHN; assay: Growth inhibition of human ACHN cells assessed as cell growth at 5X10'-5 M after 48 hrs by sulforhodamine B assay; conditions: read-out: Activity
[25] = test system: NCI-H322M; assay: Growth inhibition of human NCI-H322M cells assessed as cell growth at 5X10'-8 M after 48 hrs by sulforhodamine B assay; conditions: read-out: Activity
[26] = test system: KM12; assay: Growth inhibition of human KM12 cells assessed as cell growth at 5X10'-7 M after 48 hrs by sulforhodamine B assay; conditions: KM12, 48 h, read-out: Activity
[27] = test system: A498; assay: Growth inhibition of human A498 cells assessed as cell growth at 5X10'-9 M after 48 hrs by sulforhodamine B assay; conditions: A498, 48 h, read-out: Activity
[28] = test system: SK-MEL-2; assay: Growth inhibition of human SK-MEL-2 cells assessed as cell growth at 5X10'-8 M after 48 hrs by sulforhodamine B assay; conditions: SK-MEL-2, 48 h, read-out: Activity
[29] = test system: SF-295; assay: Growth inhibition of human SF295 cells assessed as cell growth at 5X10'-7 M after 48 hrs by sulforhodamine B assay; conditions: SF-295, 48 h, read-out: Activity
[30] = test system: LOX IMVI; assay: Growth inhibition of human LOXIMVI cells assessed as cell growth at 5X10'-9 M after 48 hrs by sulforhodamine B assay; conditions: read-out: Activity
[31] = test system: SK-MEL-5; assay: Growth inhibition of human SK-MEL-5 cells assessed as cell growth at 5X10'-6 M after 48 hrs by sulforhodamine B assay; conditions: SK-MEL-5, 48 h, read-out: Activity
[32] = test system: TK-10; assay: Growth inhibition of human TK10 cells assessed as cell growth at 5X10'-8 M after 48 hrs by sulforhodamine B assay; conditions: TK-10, 48 h, read-out: Activity
[33] = test system: OVCAR-8; assay: Growth inhibition of human OVCAR8 cells assessed as cell growth at 5X10'-9 M after 48 hrs by sulforhodamine B assay; conditions: OVCAR-8, 48 h, read-out: Activity
[34] = test system: CCRF-CEM; assay: Growth inhibition of human CCRF-CEM cells assessed as cell growth at 5X10'-6 M after 48 hrs by sulforhodamine B assay; conditions: read-out: Activity
[35] = test system: SK-MEL-28; assay: Growth inhibition of human SK-MEL-28 cells assessed as cell growth at 5X10'-7 M after 48 hrs by sulforhodamine B assay; conditions: SK-MEL-28, 48 h, read-out: Activity

COc1cc(-c2nn(-c3cccc(NC(=O)Nc4ccc(Cl)c(Cl)c4)c3)cc2-c2ccncc2)ccc1Cl gave a growth at 0.05 µM [1] of 109%, a growth at 0.05 µM [2] of 103% and a growth at 50 µM [3] of 7%. For the same compound, the growth at 5 µM [4] was -29%, the growth at 0.5 µM [5] was 82% and the growth at 50 µM [6] was 10%. The growth at 0.5 µM [7] was 60%, the growth at 50 µM [8] was -9% and the growth at 5 µM [9] was -89%. For the same compound, the growth at 5 µM [10] was -39%, the growth at 50 µM [11] was -50% and the growth at 50 µM [12] was 5%. For the same compound, the growth at 5 µM [13] was -52%, the growth at 5 µM [14] was 6% and the growth at 0.5 µM [15] was 89%. For the same compound, the growth at 5 µM [16] was -34%, the growth at 0.5 µM [17] was 68% and the growth at 5 µM [18] was 11%. For the same compound, the growth at 5 µM [19] was -4%, the growth at 0.5 µM [20] was 78% and the growth at 0.05 µM [21] was 94%. The growth at 0.5 µM [22] was 45%, the growth at 0.05 µM [23] was 93% and the growth at 50 µM [24] was 5%. For the same compound, the growth at 0.05 µM [25] was 102%, the growth at 0.5 µM [26] was 70% and the growth at 0.005 µM [27] was 87%. For the same compound, the growth at 0.05 µM [28] was 112%, the growth at 0.5 µM [29] was 62% and the growth at 0.005 µM [30] was 97%. For the same compound, the growth at 5 µM [31] was -86%, the growth at 0.05 µM [32] was 103% and the growth at 0.005 µM [33] was 99%. It also gave a growth at 5 µM [34] of -2% and a growth at 0.5 µM [35] of 91%.
